Like-named read-outs stand apart in the source and are kept apart here.
Key:
Experiment in all cases: TGFα-shedding assay-based GPCR screening with chimeric Gα subunit proteins
Assay type in all cases: cell-based
348 GPCRs [1] = biological target: T1, 348 GPCRs (Homo sapiens, UniProt Q9Y5Y4); conditions: 10µM, Favipiravir 100μM
T1 construct: expressed in transfected cells; host or cells: HEK293A
T1 sequence (Q9Y5Y4 1-395): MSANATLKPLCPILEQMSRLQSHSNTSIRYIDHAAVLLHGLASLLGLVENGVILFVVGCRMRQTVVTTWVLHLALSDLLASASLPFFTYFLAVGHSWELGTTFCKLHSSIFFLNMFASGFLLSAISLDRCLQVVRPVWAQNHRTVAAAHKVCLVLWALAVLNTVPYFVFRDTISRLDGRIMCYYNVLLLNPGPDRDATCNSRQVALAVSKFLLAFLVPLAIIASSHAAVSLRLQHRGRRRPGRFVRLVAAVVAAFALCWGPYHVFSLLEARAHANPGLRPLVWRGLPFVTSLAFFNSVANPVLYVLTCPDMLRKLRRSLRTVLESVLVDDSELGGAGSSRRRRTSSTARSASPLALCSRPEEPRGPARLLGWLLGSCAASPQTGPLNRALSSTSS

348 GPCRs [2] = biological target: T2, 348 GPCRs (Homo sapiens, UniProt P41180); conditions: 10µM, Favipiravir 100μM
T2 construct: expressed in transfected cells; host or cells: HEK293A
T2 sequence (P41180 20-1078): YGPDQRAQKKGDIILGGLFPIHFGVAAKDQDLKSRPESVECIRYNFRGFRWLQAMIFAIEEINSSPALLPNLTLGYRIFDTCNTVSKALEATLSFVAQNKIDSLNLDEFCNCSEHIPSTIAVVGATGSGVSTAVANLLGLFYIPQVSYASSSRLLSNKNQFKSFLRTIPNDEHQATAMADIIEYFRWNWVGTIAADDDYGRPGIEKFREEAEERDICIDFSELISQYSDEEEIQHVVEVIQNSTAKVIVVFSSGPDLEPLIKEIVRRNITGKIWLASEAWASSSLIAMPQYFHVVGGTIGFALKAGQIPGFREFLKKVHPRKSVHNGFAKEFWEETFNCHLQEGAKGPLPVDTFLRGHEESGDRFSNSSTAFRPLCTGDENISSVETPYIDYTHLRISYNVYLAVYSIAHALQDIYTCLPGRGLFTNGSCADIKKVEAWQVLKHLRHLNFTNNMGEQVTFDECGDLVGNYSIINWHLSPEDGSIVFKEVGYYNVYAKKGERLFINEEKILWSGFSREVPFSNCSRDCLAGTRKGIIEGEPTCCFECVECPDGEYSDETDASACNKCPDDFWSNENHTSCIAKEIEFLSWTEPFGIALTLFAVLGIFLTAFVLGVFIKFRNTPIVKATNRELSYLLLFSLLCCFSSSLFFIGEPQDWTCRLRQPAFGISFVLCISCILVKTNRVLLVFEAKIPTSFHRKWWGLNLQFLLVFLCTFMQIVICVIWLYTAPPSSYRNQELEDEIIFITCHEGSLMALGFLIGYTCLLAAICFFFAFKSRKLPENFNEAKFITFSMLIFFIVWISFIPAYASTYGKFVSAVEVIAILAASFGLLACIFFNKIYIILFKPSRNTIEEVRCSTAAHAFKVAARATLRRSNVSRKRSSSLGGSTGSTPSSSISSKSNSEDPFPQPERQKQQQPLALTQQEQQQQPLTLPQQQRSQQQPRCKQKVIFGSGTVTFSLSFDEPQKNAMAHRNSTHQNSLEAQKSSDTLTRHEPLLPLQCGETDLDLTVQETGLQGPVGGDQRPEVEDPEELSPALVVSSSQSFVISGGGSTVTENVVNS

348 GPCRs [3] = biological target: T3, 348 GPCRs (Homo sapiens, UniProt P49682)
T3 construct: expressed in transfected cells; host or cells: HEK293A
T3 sequence (P49682 1-368): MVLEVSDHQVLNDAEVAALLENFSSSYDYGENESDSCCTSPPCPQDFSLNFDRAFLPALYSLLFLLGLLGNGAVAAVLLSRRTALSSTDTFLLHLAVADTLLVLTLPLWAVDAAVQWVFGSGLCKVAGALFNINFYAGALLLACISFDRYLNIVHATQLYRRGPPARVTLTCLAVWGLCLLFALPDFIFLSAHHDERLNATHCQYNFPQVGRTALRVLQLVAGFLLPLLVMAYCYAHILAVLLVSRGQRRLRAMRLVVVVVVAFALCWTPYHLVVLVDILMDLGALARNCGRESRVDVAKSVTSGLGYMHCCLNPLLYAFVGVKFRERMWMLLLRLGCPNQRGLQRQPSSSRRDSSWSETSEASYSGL

348 GPCRs [4] = biological target: T4, 348 GPCRs (Homo sapiens, UniProt Q8TDV0); conditions: 10µM, Favipiravir 100μM
T4 construct: expressed in transfected cells; host or cells: HEK293A
T4 sequence (Q8TDV0 1-419): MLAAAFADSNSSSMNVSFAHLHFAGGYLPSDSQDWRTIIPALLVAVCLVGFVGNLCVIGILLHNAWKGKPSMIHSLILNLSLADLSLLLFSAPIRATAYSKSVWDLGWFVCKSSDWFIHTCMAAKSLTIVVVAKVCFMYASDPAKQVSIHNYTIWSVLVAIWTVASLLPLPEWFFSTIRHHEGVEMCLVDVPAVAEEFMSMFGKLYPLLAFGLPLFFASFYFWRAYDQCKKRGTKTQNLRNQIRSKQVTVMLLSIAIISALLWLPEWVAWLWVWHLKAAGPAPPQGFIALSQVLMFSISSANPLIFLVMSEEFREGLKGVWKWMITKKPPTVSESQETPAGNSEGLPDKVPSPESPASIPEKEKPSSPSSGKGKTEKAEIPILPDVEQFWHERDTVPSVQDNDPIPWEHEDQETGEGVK

[5] = DP2 (prostaglandin D2 receptor 2), read-out: % GPCR activation compared to TPA
[6] = CASR (calcium sensing receptor), read-out: % GPCR activation compared to TPA
[7] = GPCR CXCR3 (C-X-C motif chemokine receptor 3), read-out: % GPCR activation compared to TPA
[8] = GPR151 (G Protein-Coupled Receptor 151), read-out: % GPCR activation compared to TPA
[9] = read-out: % GPCR activation compared to TPA, DP2 (prostaglandin D2 receptor 2)
[10] = read-out: % GPCR activation compared to TPA, CASR (calcium sensing receptor)
[11] = read-out: % GPCR activation compared to TPA, GPCR CXCR3 (C-X-C motif chemokine receptor 3)
[12] = read-out: % GPCR activation compared to TPA, GPR151 (G Protein-Coupled Receptor 151)

Compound: N#C[C@@]1(c2ccc3c(N)ncnn23)O[C@H](CO)[C@@H](O)[C@H]1O [GS441524]
- activation at 100 µM (348 GPCRs [1]; [5]): -0.745%
- activation at 100 µM (348 GPCRs [2]; [6]): 1.55%
- activation at 10 µM (348 GPCRs [3]; [7]): -3.08%
- activation at 10 µM (348 GPCRs [4]; [8]): -2.28%

Compound: CC(C)OC(=O)[C@H](C)N[P@](=O)(OC[C@H]1O[C@@H](n2ccc(=O)[nH]c2=O)[C@](C)(F)[C@@H]1O)Oc1ccccc1 [sofosbuvir]
- activation at 100 µM (348 GPCRs [1]; [9]): 0.675%
- activation at 100 µM (348 GPCRs [2]; [10]): -3.31%
- activation at 10 µM (348 GPCRs [3]; [11]): -2.03%
- activation at 10 µM (348 GPCRs [4]; [12]): -2.06%

Compound: CCC(CC)COC(=O)[C@H](C)N[P@](=O)(OC[C@H]1O[C@@](C#N)(c2ccc3c(N)ncnn23)[C@H](O)[C@@H]1O)Oc1ccccc1 [remdesivir]
- activation at 100 µM (348 GPCRs [1]; [9]): 1.87%
- activation at 100 µM (348 GPCRs [2]; [10]): 4.48%
- activation at 10 µM (348 GPCRs [3]; [11]): -0.708%
- activation at 10 µM (348 GPCRs [4]; [12]): -3.65%

Compound: CC(C)C(=O)OC[C@H]1O[C@@H](n2ccc(NO)nc2=O)[C@H](O)[C@@H]1O [molnupiravir]
- activation at 100 µM (348 GPCRs [1]; [5]): 0.374%
- activation at 100 µM (348 GPCRs [2]; [6]): -0.137%
- activation at 10 µM (348 GPCRs [3]; [7]): -2.3%
- activation at 10 µM (348 GPCRs [4]; [8]): -2.68%

Compound: NC(=O)c1nc(F)cnc1O [favipiravir, 6-fluoro-3-hydroxy-2-pyrazinecarboxamide]
- activation at 100 µM (348 GPCRs [1]; [5]): 0.119%
- activation at 100 µM (348 GPCRs [2]; [6]): 0.748%
- activation at 100 µM (348 GPCRs [3]; GPCR CXCR3 (C-X-C motif chemokine receptor 3), 100μM, read-out: % GPCR activation compared to TPA): -0.62%
- activation at 10 µM (348 GPCRs [4]; [8]): -0.974%

Source: paper PMC10175918 (Communications Biology, 2023)
